Laboratory results taken from patent publication US8388931B2, “99m Tc-labeled triphenylphosphonium derivative contrasting agents and molecular probes for early detection and imaging of breast tumors” (priority 2008, dated 2013).
Like-named read-outs stand apart in the source and are kept apart here.

Details: for Radioactivity Uptake, Bone: Bone (non-organ); for Radioactivity Uptake, Fat: Fat (non-organ); for Radioactivity Uptake, Muscle: Muscle (non-organ); for Radioactivity Uptake, Urine: Urine (non-organ)
Method: Rats (n=3) were sacrificed at 1, 3, 5, 10, 30 and 60 min after injection and the distribution of radioactivity in different tissues was determined by gamma well counting with an energy window of 140±15 keV. The biodistribution data is expressed in terms of percentage injected dosage per gram (% ID/g) with mean±standard deviation. Urine samples were collected from the bladder at 30 min after injection, and were analyzed by radioHPLC to determine the presence of metabolic derivatives of the radiotracer. […] Specifically, anterior planar whole-body dynamic images were acquired on an XRT gamma camera (General Electric) using a high-resolution medium energy parallel-hole collimator at one frame per minute for 60 min, with 512×512 matrix, and an energy window of 140±15 keV.

## CC(=O)[S+]1CC(=O)[N]2CC(=O)[N]3CC(=O)[N](CC(=O)NCCCCCCCCCC[P+](c4ccccc4)(c4ccccc4)c4ccccc4)[99Tc]321=[O].[Br-] (centres unmarked) [^99mTc-Mito10-MAG3]
1 min after injection, rats
  Radioactivity Uptake, Bone: 0.12 ± 0.05 % ID/g
  Radioactivity Uptake, Brain: 0.04 ± 0.03 % ID/g
  Radioactivity Uptake, Colon: 0.09 ± 0.04 % ID/g
  Radioactivity Uptake, Fat: 0.04 ± 0.02 % ID/g
  Radioactivity Uptake, Heart: 0.20 ± 0.08 % ID/g
  Radioactivity Uptake, Kidneys: 2.30 ± 0.55 % ID/g
  Radioactivity Uptake, Liver: 3.23±1.10 % ID/g
  Radioactivity Uptake, Lung: 0.82 ± 1.05 % ID/g
  Radioactivity Uptake, Muscle: 0.05 ± 0.02 % ID/g
  Radioactivity Uptake, Pancreas: 0.32 ± 0.22 % ID/g
  Radioactivity Uptake, Skin: 0.07 ± 0.03 % ID/g
  Radioactivity Uptake, Small Intestine: 0.18 ± 0.04 % ID/g
  Radioactivity Uptake, Spleen: 0.27 ± 0.12 % ID/g
  Radioactivity Uptake, Stomach: 0.26 ± 0.04 % ID/g
  Radioactivity Uptake, Thymus: 006 ± 0.02 % ID/g
  Radioactivity Uptake, Thyroid: 0.30 ± 0.13 % ID/g
  Radioactivity Uptake, Urine: 0.05 ± 0.05 % ID/g
3 min after injection, rats
  Radioactivity Uptake, Bone: 0.05 ± 0.01 % ID/g
  Radioactivity Uptake, Brain: 0.02 ± 0.01 % ID/g
  Radioactivity Uptake, Colon: 0.08 ± 0.03 % ID/g
  Radioactivity Uptake, Fat: 0.06 ± 0.01 % ID/g
  Radioactivity Uptake, Heart: 0.27±0.04 % ID/g
  Radioactivity Uptake, Kidneys: 3.69 ± 0.92 % ID/g
  Radioactivity Uptake, Liver: 2.41 ± 1.12 % ID/g
  Radioactivity Uptake, Lung: 0.31 ± 0.14 % ID/g
  Radioactivity Uptake, Muscle: 0.03 ± 0.01 % ID/g
  Radioactivity Uptake, Pancreas: 0.27 ± 0.12 % ID/g
  Radioactivity Uptake, Skin: 0.10 ± 0.04 % ID/g
  Radioactivity Uptake, Small Intestine: 0.67 ± 0.30 % ID/g
  Radioactivity Uptake, Spleen: 0.25 ± 0.17 % ID/g
  Radioactivity Uptake, Stomach: 0.32 ± 0.12 % ID/g
  Radioactivity Uptake, Thymus: 0.12 ± 0.04 % ID/g
  Radioactivity Uptake, Thyroid: 0.33 ± 0.07 % ID/g
  Radioactivity Uptake, Urine: 0.76 ± 0.56 % ID/g
5 min after injection, rats
  Radioactivity Uptake, Bone: 0.02 ± 0.24 % ID/g
  Radioactivity Uptake, Brain: 0.04 ± 0.03 % ID/g
  Radioactivity Uptake, Colon: 0.02 ± 0.01 % ID/g
  Radioactivity Uptake, Fat: 0.07 ± 0.05 % ID/g
  Radioactivity Uptake, Heart: 0.18 ± 0.07 % ID/g
  Radioactivity Uptake, Kidneys: 3.06 ± 1.41 % ID/g
  Radioactivity Uptake, Liver: 1.50 ± 0.84 % ID/g
  Radioactivity Uptake, Lung: 0.48 ± 0.43 % ID/g
  Radioactivity Uptake, Muscle: 0.06 ± 0.01 % ID/g
  Radioactivity Uptake, Pancreas: 0.20 ± 0.17 % ID/g
  Radioactivity Uptake, Skin: 0.12 ± 0.08 % ID/g
  Radioactivity Uptake, Small Intestine: 0.48 ± 0.14 % ID/g
  Radioactivity Uptake, Spleen: 0.20 ± 0.08 % ID/g
  Radioactivity Uptake, Stomach: 0.25 ± 0.26 % ID/g
  Radioactivity Uptake, Thymus: 0.07 ± 0.01 % ID/g
  Radioactivity Uptake, Thyroid: 0.27 ± 0.11 % ID/g
  Radioactivity Uptake, Urine: 0.68 ± 0.03 % ID/g
10 min after injection, rats
  Radioactivity Uptake, Bone: 0.04 ± 0.03 % ID/g
  Radioactivity Uptake, Brain: 0.01 ± 0.00 % ID/g
  Radioactivity Uptake, Colon: 0.03 ± 0.01 % ID/g
  Radioactivity Uptake, Fat: 0.07 ± 0.03 % ID/g
  Radioactivity Uptake, Heart: 0.06±0.01 % ID/g
  Radioactivity Uptake, Kidneys: 1.79 ± 0.39 % ID/g
  Radioactivity Uptake, Liver: 0.89 ± 0.30 % ID/g
  Radioactivity Uptake, Lung: 0.23 ± 0.24 % ID/g
  Radioactivity Uptake, Muscle: 0.06 ± 0.01 % ID/g
  Radioactivity Uptake, Pancreas: 0.12 ± 0.04 % ID/g
  Radioactivity Uptake, Skin: 0.05 ± 0.04 % ID/g
  Radioactivity Uptake, Small Intestine: 0.50 ± 0.19 % ID/g
  Radioactivity Uptake, Spleen: 0.09 ± 0.04 % ID/g
  Radioactivity Uptake, Stomach: 0.30 ± 0.24 % ID/g
  Radioactivity Uptake, Thymus: 0.04 ± 0.03 % ID/g
  Radioactivity Uptake, Thyroid: 0.11 ± 0.04 % ID/g
  Radioactivity Uptake, Urine: 2.35 ± 2.63 % ID/g
30 min after injection, rats
  Radioactivity Uptake, Bone: 0.01 ± 0.01 % ID/g
  Radioactivity Uptake, Brain: 0.01 ± 0.01 % ID/g
  Radioactivity Uptake, Colon: 0.04 ± 0.03 % ID/g
  Radioactivity Uptake, Fat: 0.01 ± 0.00 % ID/g
  Radioactivity Uptake, Heart: 0.02±0.02 % ID/g
  Radioactivity Uptake, Kidneys: 1.40 ± 0.96 % ID/g
  Radioactivity Uptake, Liver: 0.32±0.02 % ID/g
  Radioactivity Uptake, Lung: 0.05 ± 0.01 % ID/g
  Radioactivity Uptake, Muscle: 0.02 ± 0.01 % ID/g
  Radioactivity Uptake, Pancreas: 0.01 ± 0.00 % ID/g
  Radioactivity Uptake, Skin: 0.04 ± 0.03 % ID/g
  Radioactivity Uptake, Small Intestine: 0.52 ± 0.20 % ID/g
  Radioactivity Uptake, Spleen: 0.02 ± 0.02 % ID/g
  Radioactivity Uptake, Stomach: 0.57 ± 0.41 % ID/g
  Radioactivity Uptake, Thymus: 0.01 ± 0.00 % ID/g
  Radioactivity Uptake, Thyroid: 0.02 ± 0.02 % ID/g
  Radioactivity Uptake, Urine: 8.83 ± 8.50 % ID/g
60 min after injection, rats
  Radioactivity Uptake, Bone: 0.00 ± 0.00 % ID/g
  Radioactivity Uptake, Brain: 0.00 ± 0.00 % ID/g
  Radioactivity Uptake, Colon: 0.01 ± 0.00 % ID/g
  Radioactivity Uptake, Fat: 0.00 ± 0.00 % ID/g
  Radioactivity Uptake, Heart: 0.01 ± 0.00 % ID/g
  Radioactivity Uptake, Kidneys: 0.75 ± 0.59 % ID/g
  Radioactivity Uptake, Liver: 0.21 ± 0.07 % ID/g
  Radioactivity Uptake, Lung: 0.03 ± 0.01 % ID/g
  Radioactivity Uptake, Muscle: 0.01 ± 0.00 % ID/g
  Radioactivity Uptake, Pancreas: 0.02 ± 0.01 % ID/g
  Radioactivity Uptake, Skin: 0.02 ± 0.01 % ID/g
  Radioactivity Uptake, Small Intestine: 0.36 ± 0.41 % ID/g
  Radioactivity Uptake, Spleen: 0.02 ± 0.01 % ID/g
  Radioactivity Uptake, Stomach: 0.04 ± 0.05 % ID/g
  Radioactivity Uptake, Thymus: 0.01 ± 0.00 % ID/g
  Radioactivity Uptake, Thyroid: 0.01 ± 0.00 % ID/g
  Radioactivity Uptake, Urine: 10.85 ± 12.48 % ID/g
liver, after injection
  time for hepatic signal to decline to sufficiently low level: ≤ 30 min
rats, intravenous injection, estimated
  blood half-life: less than 2 min
